The text below walks through data of patent US20250059474A1, “Liquid formulation comprising an alcohol and highly water soluble manganese complex salt catalyst, bleaching formulation and cleaning agent comprising the same” (Catexel GmbH, priority 2023, published 2025).

Like-named read-outs stand apart in the source and are kept apart here.

Series [1] in a line: Solubility in water at 20° C. It is filed as physicochemical.
Series [2] in a line: Dissolution and storage stability of MnTACN salts in various solvents. It is filed as physicochemical. On the procedure:
Dissolution of MnTACN-PF6 catalyst in various solvents was performed. First a screening was done in which solvents the PF6 salt of the MnTACN catalyst could be dissolved.

Series [3] is described as follows: Dishwash machine tea-stain cleaning experiments. As to conditions: 0 = no cleaning, 100 = complete removal. On the procedure: A standard dishwash machine tablet was prepared using the same ingredients as disclosed in WO2022/058039 (Weylchem Performance Products GmbH). Together with each tablet (14 g) on top, either no catalyst was added (blank), 100 mg of Weylclean® FDO X (uncoated granules containing 2 wt-% of MnTACN-PF6 (comparative)) was added, or 82 mg of dipropylene glycol containing 1.64 mg of dissolved MnTACN-SO4 (Exp low MnTACN-SO4) or 100 mg of dipropylene glycol containing 2 mg of dissolved MnTACN-SO4 (Exp high MnTACN-SO4).

Series [4] in a line: Stability of PVOH pouches containing solvents. The following applies: 26 weeks at 40° C. then 26 weeks at room temperature. On the procedure:
In small pouches made from a standard PVOH film, different solvents were added (1 mL), the pouch was sealed using a hot plate (150° C.). The pouches containing the solvent were stored for 26 weeks at 40° C. and then for 26 weeks at room temperature.

Where [5] appears, read: Dowanol PM with 3 wt % citric acid.
[6] abbreviates: dipropylene glycol with 3 wt % of nitric acid.
[7] abbreviates: dipropylene glycol with 3 wt % sulfuric acid.
The mark [8] stands for this setting: propylene glycol, no acids added.

For the compound `CN1CCN(C)CCN(C)CC1.CN1CCN(C)CCN(C)CC1.O.O.O.O.O=S(=O)([O-])[O-].[Mn+4].[Mn+4].[O-2].[O-2].[O-2]` [MnTACN-SO4, [Mn^IV2(μ-O)3(Me3-TACN)2]SO4*4H2O], the solubility in water entry is “greater than 735 g/L” in series [1] and more than 73.5 wt % in series [1] (equated from g/L). For the same compound, the “solubility and stability in solvent” value in series [2] (setting [5]) was “good solubility and stability”; in series [2] (Dowanol PM with nitric acid), “poor solubility”; in series [2] (Dowanol PM with sulfuric acid), “poor solubility”; in series [2] (Dowanol PM without acid) it was “good solubility and stability”; in series [2] (dipropylene glycol), “good solubility and stability”; in series [2] (dipropylene glycol with 3 wt % citric acid) it was “good solubility and stability”. The “solubility and stability in solvent” value in series [2] (setting [6]) is “precipitation”; in series [2] (setting [7]), “precipitation”; in series [2] (setting [8]), “good solubility and stability”. The “tea-stain cleaning on tea cups” value was 80 points in series [3] (14 g tablet + 82 mg dipropylene glycol containing 1.64 mg dissolved catalyst (Exp low)) and 85 points in series [3] (14 g tablet + 100 mg dipropylene glycol containing 2 mg dissolved catalyst (Exp high)).

For `COC(C)COC(C)CO` (stereo not drawn) [Dowanol DPM, dipropylene glycol methyl ether], in series [4] (solvent without acid, 1 mL), the “stability of PVOH pouches containing the solvent” value is recorded as “good stability”.

Consider `CN1CCN(C)CCN(C)CC1.CN1CCN(C)CCN(C)CC1.O.O.O.O.O=C([O-])c1ccccc1.O=C([O-])c1ccccc1.[Mn+4].[Mn+4].[O-2].[O-2].[O-2]` [MnTACN-benzoate, [Mn^IV2(μ-O)3(Me3-TACN)2](benzoate)2*4H2O], for which the solubility in water entry in series [1] is on record as “greater than 1000 g/L”. Besides, the “solubility and stability in solvent” value in series [2] (dipropylene glycol) was “dissolved well”. The “stability upon storage in solution” value in series [2] (dipropylene glycol, room temperature for at least 7 months) was “very high stability”.

As to `CN1CCN(C)CCN(C)CC1.CN1CCN(C)CCN(C)CC1.Cc1ccc(S(=O)(=O)[O-])cc1.Cc1ccc(S(=O)(=O)[O-])cc1.[Mn+4].[Mn+4].[O-2].[O-2].[O-2]` [MnTACN-Ts2, [Mn^IV2(μ-O)3(Me3-TACN)2](tosylate)2], the solubility in water entry in series [1] is listed as “greater than 100 g/L”; in series [1] (equated from g/L), more than 10 wt %. For the same compound, the “solubility and stability in solvent” value in series [2] (dipropylene glycol) was “dissolved”.

Consider `CN1CCN(C)CCN(C)CC1.CN1CCN(C)CCN(C)CC1.O=[N+]([O-])[O-].O=[N+]([O-])[O-].[Mn+4].[Mn+4].[O-2].[O-2].[O-2]` [MnTACN-NO3, [Mn^IV2(μ-O)3(Me3-TACN)2](NO3)2], for which the solubility in water entry was “greater than 283 g/L” in series [1] and more than 28.3 wt % in series [1] (equated from g/L). The “solubility and stability in solvent” value in series [2] (setting [5]) is “good solubility and stability”; in series [2] (Dowanol PM with sulfuric acid), “good solubility and stability”; in series [2] (Dowanol PM without acid), “good solubility and stability”; in series [2] (dipropylene glycol) it was “good solubility and stability”; in series [2] (setting [6]), “good solubility and stability”; in series [2] (setting [7]), “good solubility and stability”. Besides, in series [2] (setting [8]), the “solubility and stability in solvent” value is “good solubility and stability”.

Take `CN1CCN(C)CCN(C)CC1.CN1CCN(C)CCN(C)CC1.F[P-](F)(F)(F)(F)F.F[P-](F)(F)(F)(F)F.O.[Mn+4].[Mn+4].[O-2].[O-2].[O-2]` [MnTACN-PF6, [Mn^IV2(μ-O)3(Me3-TACN)2](PF6)2*H2O, reference compound]: the solubility in water in series [1] was found to be 10.8 g/L. The solubility in solvent result in series [2] (1,3-propanol-diol), in series [2] (1-hexanol), in series [2] (1-propanol), in series [2] (2-ethyl-1-hexanol), in series [2] (2-propanol) and in series [2] (Dowanol DPM) was “Poor solubility” each time. Also, the solubility in solvent entry in series [2] (acetonitrile) is “dissolved very well”; in series [2] (ethanol (abs)), “Poor solubility”; in series [2] (ethyl acetate), “Poor solubility”; in series [2] (ethylene glycol, after heating), “dissolved”; in series [2] (formic acid), “well soluble”. Besides, the “solubility and stability in solvent” value in series [2] (Dowanol PM without acid) and in series [2] (dipropylene glycol) was “Poor solubility” each time. Also, the “stability (appearance) in solution” value in series [2] (formic acid) is “turned brown”.

Regarding `CN1CCN(C)CCN(C)CC1.CN1CCN(C)CCN(C)CC1.O.O.O.[Cl-].[Cl-].[Mn+4].[Mn+4].[O-2].[O-2].[O-2]` [MnTACN-Cl2, [Mn^IV2(μ-O)3(Me3-TACN)2]Cl2*3H2O], the values for the solubility in water result in series [1] and in series [1] (equated from g/L) were “greater than 182 g/L” and more than 18.2 wt %, respectively. Moreover, the solubility in solvent entry in series [2] (dipropylene glycol, had to be heated) was “dissolved”.

Consider `COCC(C)O` (stereo not drawn) [Dowanol PM, propylene glycol methyl ether], for which the “stability of PVOH pouches containing the solvent” value is “not stable” in series [4] (solvent with 3 wt % H2SO4); “good stability” in series [4] (solvent with 3 wt % HNO3); “not stable” in series [4] (solvent with 3 wt % citric acid); “not stable” in series [4] (solvent without acid, 1 mL).
